Assay results: patent US5212173A, “Alkylaminoalkylamine and ether compounds, processes and intermediates for their preparation, and medicaments containing them” (Kali-Chemie Pharma GmbH, priority 1990, dated 1993)

Key:
[1] = system: isolated guinea pig ileum; experiment: Spasmolytic action in vitro against potassium chloride-induced contraction on the isolated guinea pig ileum; assay type: cell-based; settings: Cavia porcellus, 50 mmol/l KCl, Tyrode solution, 37° C., read-out: EC50 (approximately 50% reduction in the maximum potassium chloride-induced contraction)
Text: In a physiological saline solution, isolated organ strips from the gastrointestinal tract such as gastric fundus, gastric antrum, duodenum, ileum, proximal colon and distal colon react to the addition of a spasmogen, for example potassium chloride solution, by contracting. This contraction of the organ strips, induced by the addition of spasmogen, is decreased by addition of the compounds of the invention. The extent of the regression of the contraction is an index of the spasmolytic activity of the compounds. Determination of spasmolytic activity against potassium chloride-induced spasms in isolated guinea pig ileum.
Female guinea pigs of the Wiga strain having a body weight of about 300 g were sacrificed. Organ strips from the ileum about 1 cm long were placed in an organ bath of Tyrode solution at 37° C. and mounted in a conventional apparatus for the isotonic measurement of changes in length. Tyrode solution is an aqueous solution containing 136.9 mmol of NaCl, 2.68 mmol of KCl, 2.31 mmol of CaCl2, 1.0 mmol of MgCl2, 11.9 mmol of NaHCO3, 1.45 mmol of NaH2 PO4 and 5.55 mmol of glucose per liter. After an equilibration phase of one hour, 50 mmol/l of potassium chloride were added to the bath fluid to test the sensitivity of the ileum strips. The strips were then rinsed again with Tyrode solution. 50 mmol/l of potassium chloride were then added to the bath fluid again to induce a contraction of the ileum strip due to spasm. As soon as the contraction of the ileum strip due to spasm has reached a constant maximum value, the test substance was added to the bath fluid, and the decrease in the contraction was recorded and calculated as a % of the constant maximum contraction.
The following table A gives the obtained by the test method described above. The example numbers given in the table for the compounds of formula I correspond to the numbers of the subsequent Preparation Examples. In Table A, the EC50 represents the concentration of the test substance in moles/liter in the bath fluid with which an approximately 50% reduction is achieved in the strength of the maximum spasmodic contraction induced in the ileum strip by potassium chloride.

[2] = system: colon; experiment: Activity on spontaneous motility of the colon in anesthetized rats; assay type: in vivo, rat; settings: 100 μmol/kg i.p.
Method: The effects of the test substances on the amplitudes and frequencies of gastric and intestinal contractions were measured by the following experimental method. Determination of the activity of the test substances on the spontaneous motility of the colon in anesthetized rats.
Fasting rats of the SIV 50 strain having a body weight of 180-250 g were anesthetized with a ketamine/xylazine mixture. The animals were tracheotomised and laparotomised. After applying a pylorus ligature, a stomach tube was inserted into the stomach and connected at the other end to a calibrated pressure transducer (Statham element P 23 ID) via a three-way tap. A corresponding tube was inserted rectally 8 to 9 cm into the colon and likewise connected, in the same manner, to a corresponding calibrated pressure transducer. The stomach of the animals was then filled with 2 to 3 ml of water via the tube. The pressure variations in the colon were recorded before and after administration of the test substances using a Watanabe multicorder (MC 641). The differences between the average amplitudes before and after the treatment were determined, and the percent change in the average amplitudes caused by the test substances relative to the values obtained before the treatment is reported in the following Table B.

[3] = in vivo, po, 1440 min
Method: Male mice weighing 20-25 g were orally administered maximum doses of 300 mg/kg of the test substance. The animals were carefully observed for toxic symptoms for three hours. All symptoms and deaths over a period of 24 hours after administration were also recorded. Accompanying symptoms were likewise observed and recorded. If death or strongly toxic symptoms was observed, increasingly smaller doses were administered to further mice until toxic symptoms no longer occurred. The lowest dose which caused death or strongly toxic symptoms is given as the minimum toxic dose in the following Table B.

SMILES	EC50 [1]	Action on spontaneous motility in the colon, % amplitude reduction [2]	Minimum toxic dose in the mouse [3]
COc1cc(CN(C)CCN(C)CCO[C@@H]2C[C@H](C)CC[C@H]2C(C)C)cc(OC)c1OC [Example 19, N-[2-((1R,3R,4S)-1-methyl-4-isopropylcyclohex-3-yloxy)ethyl]-N-(2-[N'-(3,4,5-trimethoxybenzyl)-N'-methylamino]ethyl)-N-methylamine]	0.54 µM	74%	–
CN(CCSCC[C@@H]1CC[C@H]2C[C@@H]1C2(C)C)CCN1CCOCC1 [Example 7, N-(2-[2-((1S,2S,5S)-6,6-dimethylbicyclo[3.1.1]hept-2-yl)ethylthio]ethyl)-N-[2-(morpholin-1-yl)ethyl]-N-methylamine]	16 µM	–	–
CN(CCO[C@@H]1C[C@@H]2CC[C@@]1(C)C2(C)C)CCN1CCOCC1 [Example 38]	19 µM	–	–
CC(C)[C@@H]1CC[C@@H](C)C[C@H]1OCCN(C)CCN(C)CCCCc1ccccc1 [Example 50]	1.3 µM	–	–
CN(CCO[C@H]1C(C)(C)[C@@H]2CC[C@@]1(C)C2)CCN1CCOCC1 [Example 37]	26 µM	–	–
COc1ccc(CN(CCN(C)CCO[C@@H]2C[C@H](C)CC[C@H]2C(C)C)C(C)C)cc1OC [Example 23]	1.5 µM	–	–
CC(C)N(CCOCC[C@@H]1CC[C@H]2C[C@@H]1C2(C)C)CCN1CCOCC1 [Example 20]	7.9 µM	69%	> 300 mg/kg
CCOCCN(C)CCOCC[C@@H]1CC[C@H]2C[C@@H]1C2(C)C [Example 22]	8.7 µM	85%	100 mg/kg
CN(CCCCCOCC[C@@H]1CC[C@H]2C[C@@H]1C2(C)C)CCN1CCOCC1 [Example 10, N-(5-[2-((1S,2S,5S)-6,6-dimethylbicyclo[3.1.1]hept-2-yl)ethoxy]pentyl)-N-[2-(morpholin-1-yl)ethyl]-N-methylamine]	30 µM	–	–
COc1ccc(CCN(C)CCN(C)CCOCC[C@@H]2CC[C@H]3C[C@@H]2C3(C)C)cc1OC [Example 21]	3.6 µM	62%	300 mg/kg
CC(C)COCCN(C)CCO[C@@H]1C[C@H](C)CC[C@H]1C(C)C [Example 2, N-[2-((1R,3R,4S)-1-methyl-4-isopropylcyclohex-3-yloxy)ethyl]-N-[2-(2,2-dimethylethoxy)ethyl]-N-methylamine]	2 µM	55%	> 300 mg/kg
CC(C)[C@@H]1CC[C@@H](C)C[C@H]1OCCN(C)CCN1CCOCC1 [Example 1, N-[2-((1R,3R,4S)-1-methyl-4-isopropylcyclohex-3-yloxy)ethyl]-N-[2-(morpholin-1-yl)ethyl]-N-methylamine]	12 µM	55%	> 300 mg/kg
CC(C)[C@@H]1CC[C@@H](C)C[C@H]1OCCN(C)CCN(Cc1ccccc1)Cc1ccccc1 [Example 48]	0.68 µM	85%	–
CC(C)COCCNCCO[C@@H]1C[C@H](C)CC[C@H]1C(C)C [Example 16, N-[2-((1R,3R,4S)-1-methyl-4-isopropylcyclohex-3-yloxy)ethyl]-N-[2-(2,2-dimethylethoxy)ethyl]amine]	4.9 µM	–	–

Continued, in another order:

EC50 [1]	SMILES	Action on spontaneous motility in the colon, % amplitude reduction [2]	Minimum toxic dose in the mouse [3]
43 µM	CC(C)[C@@H]1CC[C@@H](C)C[C@H]1OCCN(C)CCCCCCN1CCOCC1 [Example 36]	–	–
14 µM	CC(C)[C@H]1CC[C@H](C)C[C@@H]1OCCN(C)CCN1CCOCC1 [Example 24]	–	–
4.8 µM	CC(C)[C@@H]1CC[C@@H](C)C[C@H]1OCCN(C)CCN(C)CCc1ccccc1Cl [Example 46]	–	–
47 µM	CC(C)[C@@H]1CC[C@@H](C)C[C@H]1OCCN(C)CCN1CCN(C)CC1 [Example 34]	–	–
20 µM	CC(C)[C@@H]1CC[C@@H](C)C[C@H]1OCCN(C)CCN1CCCC1 [Example 32]	–	–
1.9 µM	CC(C)[C@@H]1CC[C@@H](C)C[C@H]1OCCN(C)CCOCc1ccccc1 [Example 35]	–	–
2.4 µM	CC(C)[C@@H]1CC[C@@H](C)C[C@H]1OCCN(C)CCNCc1ccc(Cl)c(Cl)c1 [Example 44]	–	–
